Laboratory results published in patent publication US11713338B2, “Cyclic peptides multimers targeting α-4-β-7 integrin” (priority 2016, dated 2023).
pIC50: −log10 of the molar value.

Target: T1, integrin α4β7 (RPMI8866 human cells adhering to MAdCAM-1) (Homo sapiens, UniProt P13612+P26010)
T1 construct: RMP18866 cells, which express integrin α4β7; host or cells: RPMI8866
T1 sequence (P13612 34-1032): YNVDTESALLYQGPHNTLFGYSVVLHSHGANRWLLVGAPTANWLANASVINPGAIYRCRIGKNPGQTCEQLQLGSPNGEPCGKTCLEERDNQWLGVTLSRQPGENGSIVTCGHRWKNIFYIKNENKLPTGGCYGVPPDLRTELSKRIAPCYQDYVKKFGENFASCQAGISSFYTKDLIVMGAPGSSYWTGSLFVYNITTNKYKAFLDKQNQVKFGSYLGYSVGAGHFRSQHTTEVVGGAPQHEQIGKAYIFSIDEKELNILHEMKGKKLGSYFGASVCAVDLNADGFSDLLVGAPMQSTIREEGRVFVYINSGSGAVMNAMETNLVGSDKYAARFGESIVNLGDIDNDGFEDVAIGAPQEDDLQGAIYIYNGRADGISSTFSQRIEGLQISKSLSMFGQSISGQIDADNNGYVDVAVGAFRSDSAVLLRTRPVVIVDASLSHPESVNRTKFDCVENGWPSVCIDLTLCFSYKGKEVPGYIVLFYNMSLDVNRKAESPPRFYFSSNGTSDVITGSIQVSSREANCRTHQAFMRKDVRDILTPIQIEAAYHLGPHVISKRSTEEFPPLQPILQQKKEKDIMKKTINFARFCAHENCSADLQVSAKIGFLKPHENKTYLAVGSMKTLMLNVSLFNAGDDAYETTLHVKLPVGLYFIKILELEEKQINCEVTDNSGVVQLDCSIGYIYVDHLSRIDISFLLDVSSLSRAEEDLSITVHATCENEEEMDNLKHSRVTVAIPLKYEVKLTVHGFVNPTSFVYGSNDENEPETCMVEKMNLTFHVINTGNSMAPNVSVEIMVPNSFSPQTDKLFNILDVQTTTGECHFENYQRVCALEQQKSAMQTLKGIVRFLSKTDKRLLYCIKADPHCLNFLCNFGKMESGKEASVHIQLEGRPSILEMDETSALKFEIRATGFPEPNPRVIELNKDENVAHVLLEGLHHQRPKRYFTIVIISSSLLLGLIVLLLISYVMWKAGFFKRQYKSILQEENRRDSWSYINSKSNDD
T1 sequence (P26010 20-798): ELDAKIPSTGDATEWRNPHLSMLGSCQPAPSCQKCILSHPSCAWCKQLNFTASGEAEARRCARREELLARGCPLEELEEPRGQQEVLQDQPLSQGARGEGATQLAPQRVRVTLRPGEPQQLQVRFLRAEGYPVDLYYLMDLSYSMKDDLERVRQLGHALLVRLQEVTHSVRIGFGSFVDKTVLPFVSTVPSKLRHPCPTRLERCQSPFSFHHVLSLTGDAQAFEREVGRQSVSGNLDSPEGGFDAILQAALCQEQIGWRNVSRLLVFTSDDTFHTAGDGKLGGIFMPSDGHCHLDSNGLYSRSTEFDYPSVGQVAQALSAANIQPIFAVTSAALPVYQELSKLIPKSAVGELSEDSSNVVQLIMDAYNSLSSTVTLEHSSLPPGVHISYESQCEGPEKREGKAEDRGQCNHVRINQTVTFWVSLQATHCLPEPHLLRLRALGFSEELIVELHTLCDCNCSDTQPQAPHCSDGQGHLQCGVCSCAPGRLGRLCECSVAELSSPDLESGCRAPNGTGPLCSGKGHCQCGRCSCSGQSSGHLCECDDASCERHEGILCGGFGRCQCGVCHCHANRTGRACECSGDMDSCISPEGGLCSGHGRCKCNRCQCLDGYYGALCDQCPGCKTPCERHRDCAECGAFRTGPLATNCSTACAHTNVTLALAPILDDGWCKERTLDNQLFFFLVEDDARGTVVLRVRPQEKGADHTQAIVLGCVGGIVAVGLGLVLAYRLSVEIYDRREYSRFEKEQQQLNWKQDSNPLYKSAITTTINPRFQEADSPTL
Test: Integrin α4β7-MAdCAM cell adhesion assay (RPMI8866 cells)
Assay type: cell-based
Settings: RPMI8866 cells adhering to MAdCAM; read-out: RPMI8866 Adhesion α4β7/MAdCAM IC50
Description: Integrin α4β7-MAdCAM Cell Adhesion Assay
RPMI8866 cells were resuspended at 10 million cells/ml in PBS containing […] and incubated at 37° C. for 30 min in a 50 ml tube. […] The plate was emptied by inverting and blotting on paper towels and washed manually twice with PBS. 100 μl PBS was then added to each well. […] To calculate the dose response, the fluorescence value of control wells not containing cells was subtracted from each test well.

Compound	pIC50
CC(C)C[C@@H]1NC(=O)c2ccc(-c3ccc(N4CCN(C(=O)c5cccc(C(=O)N6CCN(c7ccc(-c8ccc9cc8CNC(=O)[C@@H]8CCCN8[C@H](C(=O)NC(C)(C)C)[C@H](C)NC(=O)[C@H]([C@@H](C)O)NC(=O)[C@H](CC(=O)O)NC(=O)[C@H](CC(C)C)NC9=O)cc7)CC6)c5)CC4)cc3)c(c2)CNC(=O)[C@@H]2CCCN2[C@H](C(=O)NC(C)(C)C)[C@H](C)NC(=O)[C@H]([C@@H](C)O)NC(=O)[C@H](CC(=O)O)NC1=O [Compound 497]	7.60
CC(C)C[C@@H]1NC(=O)c2ccc(-c3ccc(N4CCN(C(=O)CCOCCOCCOCCOCCOCCOCCOCCOCCOCCOCCOCCOCCOCCC(=O)N5CCN(c6ccc(-c7ccc8cc7CNC(=O)[C@@H]7CCCN7[C@H](C(=O)NC(C)(C)C)[C@H](C)NC(=O)[C@H]([C@@H](C)O)NC(=O)[C@H](CC(=O)O)NC(=O)[C@H](CC(C)C)NC8=O)cc6)CC5)CC4)cc3)c(c2)CNC(=O)[C@@H]2CCCN2[C@H](C(=O)NC(C)(C)C)[C@H](C)NC(=O)[C@H]([C@@H](C)O)NC(=O)[C@H](CC(=O)O)NC1=O [Compound 504]	7.38
CC(C)C[C@@H]1NC(=O)c2ccc(-c3ccc(N4CCN(C(=O)COCCOCCOCC(=O)N5CCN(c6ccc(-c7ccc8cc7CNC(=O)[C@@H]7CCCN7[C@H](C(=O)NC(C)(C)C)[C@H](C)NC(=O)[C@H]([C@@H](C)O)NC(=O)[C@H](CC(=O)O)NC(=O)[C@H](CC(C)C)NC8=O)cc6)CC5)CC4)cc3)c(c2)CNC(=O)[C@@H]2CCCN2[C@H](C(=O)NC(C)(C)C)[C@H](C)NC(=O)[C@H]([C@@H](C)O)NC(=O)[C@H](CC(=O)O)NC1=O [Compound 508]	7.34
CC(C)C[C@@H]1NC(=O)c2ccc(-c3ccc(N4CCN(C(=O)CCOCCOCCOCCOCCOCCC(=O)N5CCN(c6ccc(-c7ccc8cc7CNC(=O)[C@@H]7CCCN7[C@H](C(=O)NC(C)(C)C)[C@H](C)NC(=O)[C@H]([C@@H](C)O)NC(=O)[C@H](CC(=O)O)NC(=O)[C@H](CC(C)C)NC8=O)cc6)CC5)CC4)cc3)c(c2)CNC(=O)[C@@H]2CCCN2[C@H](C(=O)NC(C)(C)C)[C@H](C)NC(=O)[C@H]([C@@H](C)O)NC(=O)[C@H](CC(=O)O)NC1=O [Compound 509]	7.51
CC(C)C[C@@H]1NC(=O)[C@H]2CCCCN2C(=O)[C@H](Cc2ccc(CNC(=O)CCCCC(=O)NCc3ccc(C[C@@H]4NC(=O)[C@@H]5CCCN5[C@H](C(=O)NC(C)(C)C)[C@H](C)NC(=O)[C@H]([C@@H](C)O)NC(=O)[C@H](CC(=O)O)NC(=O)[C@H](CC(C)C)NC(=O)[C@H]5CCCCN5C4=O)cc3)cc2)NC(=O)[C@@H]2CCCN2[C@H](C(=O)NC(C)(C)C)[C@H](C)NC(=O)[C@H]([C@@H](C)O)NC(=O)[C@H](CC(=O)O)NC1=O [Compound 523]	6.36
CC(C)C[C@@H]1NC(=O)[C@H]2CCCCN2C(=O)[C@H](Cc2ccc(CNC(=O)CCCCCC(=O)NCc3ccc(C[C@@H]4NC(=O)[C@@H]5CCCN5[C@H](C(=O)NC(C)(C)C)[C@H](C)NC(=O)[C@H]([C@@H](C)O)NC(=O)[C@H](CC(=O)O)NC(=O)[C@H](CC(C)C)NC(=O)[C@H]5CCCCN5C4=O)cc3)cc2)NC(=O)[C@@H]2CCCN2[C@H](C(=O)NC(C)(C)C)[C@H](C)NC(=O)[C@H]([C@@H](C)O)NC(=O)[C@H](CC(=O)O)NC1=O [Compound 524]	6.35
CC(C)C[C@@H]1NC(=O)[C@H]2Cc3ccccc3CN2C(=O)[C@H](Cc2cccc(CNC(=O)CCCCCCC(=O)NCc3cccc(C[C@@H]4NC(=O)[C@@H]5CCCN5[C@H](C(=O)NC(C)(C)C)[C@H](C)NC(=O)[C@H]([C@@H](C)O)NC(=O)[C@H](CC(=O)O)NC(=O)[C@H](CC(C)C)NC(=O)[C@H]5Cc6ccccc6CN5C4=O)c3)c2)NC(=O)[C@@H]2CCCN2[C@H](C(=O)NC(C)(C)C)[C@H](C)NC(=O)[C@H]([C@@H](C)O)NC(=O)[C@H](CC(=O)O)NC1=O [Compound 528]	7.33
CC(C)C[C@@H]1NC(=O)[C@H]2Cc3ccccc3CN2C(=O)[C@H](Cc2cccc(CNC(=O)CCCCCCCC(=O)NCc3cccc(C[C@@H]4NC(=O)[C@@H]5CCCN5[C@H](C(=O)NC(C)(C)C)[C@H](C)NC(=O)[C@H]([C@@H](C)O)NC(=O)[C@H](CC(=O)O)NC(=O)[C@H](CC(C)C)NC(=O)[C@H]5Cc6ccccc6CN5C4=O)c3)c2)NC(=O)[C@@H]2CCCN2[C@H](C(=O)NC(C)(C)C)[C@H](C)NC(=O)[C@H]([C@@H](C)O)NC(=O)[C@H](CC(=O)O)NC1=O [Compound 529]	7.33

Continued, values first:

pIC50	Compound
7.42	CC(C)C[C@@H]1NC(=O)c2ccc(-c3ccc(N4CCN(C(=O)CN(C)CC(=O)N5CCN(c6ccc(-c7ccc8cc7CNC(=O)[C@@H]7CCCN7[C@H](C(=O)NC(C)(C)C)[C@H](C)NC(=O)[C@H]([C@@H](C)O)NC(=O)[C@H](CC(=O)O)NC(=O)[C@H](CC(C)C)NC8=O)cc6)CC5)CC4)cc3)c(c2)CNC(=O)[C@@H]2CCCN2[C@H](C(=O)NC(C)(C)C)[C@H](C)NC(=O)[C@H]([C@@H](C)O)NC(=O)[C@H](CC(=O)O)NC1=O [Compound 501]
7.06	CC(C)C[C@@H]1NC(=O)c2ccc(-c3ccc(N4CCN(C(=O)CCOCCOCCOCCOCCOCCOCCOCCC(=O)N5CCN(c6ccc(-c7ccc8cc7CNC(=O)[C@@H]7CCCN7[C@H](C(=O)NC(C)(C)C)[C@H](C)NC(=O)[C@H]([C@@H](C)O)NC(=O)[C@H](CC(=O)O)NC(=O)[C@H](CC(C)C)NC8=O)cc6)CC5)CC4)cc3)c(c2)CNC(=O)[C@@H]2CCCN2[C@H](C(=O)NC(C)(C)C)[C@H](C)NC(=O)[C@H]([C@@H](C)O)NC(=O)[C@H](CC(=O)O)NC1=O [Compound 510]
7.01	CC(C)C[C@@H]1NC(=O)c2ccc(-c3ccc(N4CCN(C(=O)Cc5ccc(CC(=O)N6CCN(c7ccc(-c8ccc9cc8CNC(=O)[C@@H]8CCCN8[C@H](C(=O)NC(C)(C)C)[C@H](C)NC(=O)[C@H]([C@@H](C)O)NC(=O)[C@H](CC(=O)O)NC(=O)[C@H](CC(C)C)NC9=O)cc7)CC6)cc5)CC4)cc3)c(c2)CNC(=O)[C@@H]2CCCN2[C@H](C(=O)NC(C)(C)C)[C@H](C)NC(=O)[C@H]([C@@H](C)O)NC(=O)[C@H](CC(=O)O)NC1=O [Compound 516]
7.64	CC(C)C[C@@H]1NC(=O)C[C@H](CCCCN)N(C)C(=O)[C@H](CCCCNC(=O)CCC(=O)NCCCC[C@@H]2NC(=O)[C@@H]3CCCN3[C@H](C(=O)NC(C)(C)C)[C@H](C)NC(=O)[C@H]([C@@H](C)O)NC(=O)[C@H](CC(=O)O)NC(=O)[C@H](CC(C)C)NC(=O)C[C@H](CCCCN)N(C)C2=O)NC(=O)[C@@H]2CCCN2[C@H](C(=O)NC(C)(C)C)[C@H](C)NC(=O)[C@H]([C@@H](C)O)NC(=O)[C@H](CC(=O)O)NC1=O [Compound 531]
